From the NIST ThermoML archive (doi:10.1021/je050484k)
Values joined by “and” are separate entries in the source; they are usually repeats but may differ in a detail not shown here. Equal values may be shown once.

Tests used:
[1] = xn = mol fraction of the nth substance listed; details: for surface tension liquid-gas: Pendant drop shape; for mass density: 101 kPa, Liquid
[2] = for surface tension liquid-gas: Pendant drop shape; for mass density: 101 kPa, Liquid

COCCO [2-methoxyethan-1-ol] + Cc1cc(C)cc(C)c1
[1], x1 = 1
Details	mass density [kg/m3]	surface tension liquid-gas [mN/m]
298.15 K	960.02	30.88
313.15 K	946.17	29.42

COCCOC [1,2-dimethoxyethane]
[2]
Details	mass density	surface tension liquid-gas [mN/m]
298.15 K	861.38 kg/m3	23.93
313.15 K	845.31 kg/m3 and 845.28 kg/m3	22.51

Cc1ccc(C)c(C)c1 [1,2,4-trimethylbenzene]
[2]
Details	mass density [kg/m3]	surface tension liquid-gas [mN/m]
298.15 K	871.65	29.29
313.15 K	859.54	27.67

COCCOC [1,2-dimethoxyethane] + Cc1cc(C)cc(C)c1
[1]
Details	mass density [kg/m3]	surface tension liquid-gas [mN/m]
298.15 K, x1 = 0.0487	860.76	–
298.15 K, x1 = 0.0997	860.5	27.6
298.15 K, x1 = 0.1518	860.24	–
298.15 K, x1 = 0.201	860.03	27.07
298.15 K, x1 = 0.2499	859.85	–
298.15 K, x1 = 0.2978	859.68	26.59
298.15 K, x1 = 0.3484	859.56	–
298.15 K, x1 = 0.3973	859.41	26.14
298.15 K, x1 = 0.451	859.35	–
298.15 K, x1 = 0.4991	859.29	25.71
298.15 K, x1 = 0.5498	859.31	–
298.15 K, x1 = 0.5977	859.3	25.35
298.15 K, x1 = 0.6494	859.42	–
298.15 K, x1 = 0.7011	859.52	25
298.15 K, x1 = 0.7499	859.69	–
298.15 K, x1 = 0.7999	859.91	24.67
298.15 K, x1 = 0.8474	860.25	–
298.15 K, x1 = 0.9008	860.54	24.3
298.15 K, x1 = 0.9484	860.95	–
298.15 K, x1 = 1	861.38	23.93
313.15 K, x1 = 0.0504	848.29	–
313.15 K, x1 = 0.0988	847.89	26.2
313.15 K, x1 = 0.1505	847.48	–
313.15 K, x1 = 0.1996	847.11	25.69
313.15 K, x1 = 0.2474	846.78	–
313.15 K, x1 = 0.3	846.42	25.17
313.15 K, x1 = 0.3495	846.14	–
313.15 K, x1 = 0.4	845.85	24.69
313.15 K, x1 = 0.4498	845.61	–
313.15 K, x1 = 0.5002	845.34	24.24
313.15 K, x1 = 0.5502	845.18	–
313.15 K, x1 = 0.5998	845	23.84
313.15 K, x1 = 0.6509	844.85	–
313.15 K, x1 = 0.6989	844.79	23.49
313.15 K, x1 = 0.7494	844.74	–
313.15 K, x1 = 0.8	844.75	23.17
313.15 K, x1 = 0.8505	844.8	–
313.15 K, x1 = 0.8991	844.92	22.84
313.15 K, x1 = 0.9502	845.1	–
313.15 K, x1 = 1	845.28	22.51

Cc1ccc(C)c(C)c1 [1,2,4-trimethylbenzene] + COCCOC
[1]
Details	mass density [kg/m3]	surface tension liquid-gas [mN/m]
298.15 K, x2 = 0	871.65	29.29
298.15 K, x2 = 0.0488	871.13	–
298.15 K, x2 = 0.103	870.57	28.71
298.15 K, x2 = 0.1497	870.09	–
298.15 K, x2 = 0.205	869.53	28.11
298.15 K, x2 = 0.2496	869.07	–
298.15 K, x2 = 0.3006	868.54	27.54
298.15 K, x2 = 0.3515	868.02	–
298.15 K, x2 = 0.398	867.54	26.97
298.15 K, x2 = 0.4492	867.02	–
298.15 K, x2 = 0.5005	866.49	26.43
298.15 K, x2 = 0.5491	865.99	–
298.15 K, x2 = 0.601	865.46	25.9
298.15 K, x2 = 0.649	864.97	–
298.15 K, x2 = 0.6979	864.48	25.42
298.15 K, x2 = 0.7506	863.94	–
298.15 K, x2 = 0.7977	863.46	24.92
298.15 K, x2 = 0.8501	862.93	–
298.15 K, x2 = 0.9018	862.41	24.41
298.15 K, x2 = 0.9463	861.95	–
313.15 K, x2 = 0	859.54	27.67
313.15 K, x2 = 0.0482	858.88	–
313.15 K, x2 = 0.1004	858.17	–
313.15 K, x2 = 0.1019	–	27.02
313.15 K, x2 = 0.1494	857.51	–
313.15 K, x2 = 0.1999	856.82	–
313.15 K, x2 = 0.2002	–	26.43
313.15 K, x2 = 0.2495	856.16	–
313.15 K, x2 = 0.2999	855.48	–
313.15 K, x2 = 0.3004	–	25.85
313.15 K, x2 = 0.353	854.74	–
313.15 K, x2 = 0.4007	–	25.26
313.15 K, x2 = 0.4015	854.06	–
313.15 K, x2 = 0.4557	853.31	–
313.15 K, x2 = 0.4991	–	24.73
313.15 K, x2 = 0.4996	852.68	–
313.15 K, x2 = 0.5499	851.99	–
313.15 K, x2 = 0.5989	851.29	–
313.15 K, x2 = 0.6006	–	24.23
313.15 K, x2 = 0.6513	850.53	–
313.15 K, x2 = 0.7002	–	23.77
313.15 K, x2 = 0.7005	849.81	–
313.15 K, x2 = 0.7508	849.12	–
313.15 K, x2 = 0.7999	–	23.32
313.15 K, x2 = 0.8	848.38	–
313.15 K, x2 = 0.8503	847.65	–
313.15 K, x2 = 0.9007	–	22.94
313.15 K, x2 = 0.9008	846.87	–
313.15 K, x2 = 0.9493	846.16	–

Cc1cc(C)cc(C)c1 [1,3,5-trimethylbenzene]
[2]
Details	mass density [kg/m3]	surface tension liquid-gas [mN/m]
298.15 K	861.05	28.09
313.15 K	848.74	26.82
